Measured values as given in patent publication US11352393B2, “Myotoxin-neutralizing peptides” (priority 2018, dated 2022).
Square brackets hold non-standard residues; d marks the D form. Ends that are not written are not given here. Peptide text beside a SMILES is read from it.

Experiments:
[1] = Fluorescence polarization test for self-assembly or aggregation; assay type: physicochemical; conditions: absence of Myotoxin-II
myotoxin II [2] = biological target: T1, myotoxin II (Bothrops asper, UniProt P24605); assay type: binding
T1 sequence (P24605 17-137 limits assumed): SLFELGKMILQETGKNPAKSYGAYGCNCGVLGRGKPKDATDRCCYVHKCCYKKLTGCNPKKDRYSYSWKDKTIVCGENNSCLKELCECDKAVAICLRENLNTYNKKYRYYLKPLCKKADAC

myotoxin II [3] = biological target: T1, myotoxin II

Y11D-Y (DHWVWGWNYQ[dY]QPQEWHTES) [Clone Y11D-Y]
Self-assembling or aggregating ability (artificial increase of FP signal of TAMRA-probe) [1]: did not artificially increase the FP signal

SWEPYANPTRYKFHDW [Clone 1.8]
ELISA signal at different dilutions, myotoxin II coated versus uncoated wells (myotoxin II [2]): low difference for the dilutions of 1/100 and 1/1000 | ELISA signal, myotoxin II coated wells versus uncoated control (myotoxin II [2]): greatest difference between toxin coated wells and control

DYDRIPDIPMLGGGG [Clone 1.4]
ELISA signal at different dilutions, myotoxin II coated versus uncoated wells (myotoxin II [2]): low difference for the dilutions of 1/100 and 1/1000 | ELISA signal, myotoxin II coated wells versus uncoated control (myotoxin II [2]): greatest difference between toxin coated wells and control

VNRMLELKIMDYGGG [Clone 1.1]
ELISA signal at different dilutions, myotoxin II coated versus uncoated wells (myotoxin II [2]): low difference for the dilutions of 1/100 and 1/1000 | ELISA signal, myotoxin II coated wells versus uncoated control (myotoxin II [2]): greatest difference between toxin coated wells and control

NGYWSSQQYMQQAPMPWRIP [Clone 4.10]
ELISA signal at different dilutions, myotoxin II coated versus uncoated wells (myotoxin II [2]): highest signals and also the highest signal to noise ratio in all of the dilutions | ELISA signal, myotoxin II coated wells versus uncoated control (myotoxin II [2]): greatest difference between toxin coated wells and control | Signal intensity and signal to noise ratio in cross reactivity ELISA (myotoxin II [2]): highest signal intensity and the best signal to noise ratio

CC(C)[C@H](NC(=O)[C@H](Cc1c[nH]c2ccccc12)NC(=O)[C@H](Cc1c[nH]cn1)NC(=O)[C@@H](N)CC(=O)O)C(=O)N[C@@H](Cc1c[nH]c2ccccc12)C(=O)NCC(=O)N[C@@H](Cc1c[nH]c2ccccc12)C(=O)N[C@@H](CC(N)=O)C(=O)N[C@@H](Cc1ccc(O)cc1)C(=O)N[C@@H](CCC(N)=O)C(=O)N[C@@H](Cc1ccc(O)cc1)C(=O)N[C@@H](CCC(N)=O)C(=O)N1CCC[C@H]1C(=O)N[C@@H](CCC(N)=O)C(=O)N[C@@H](CCC(=O)O)C(=O)N[C@@H](Cc1c[nH]c2ccccc12)C(=O)N[C@@H](Cc1c[nH]cn1)C(=O)N[C@H](C(=O)N[C@@H](CCC(=O)O)C(=O)N[C@@H](CO)C(=O)O)[C@@H](C)O [Clone 1.9] (H-DHWVWGWNYQYQPQEWHTES-OH)
Cytotoxicity of Myotoxin II in presence of peptide (LDH release) (myotoxin II [3]): 4%

QSVTMGPGLITHSPIHTQSK [Clone 1.2]
ELISA signal at different dilutions, myotoxin II coated versus uncoated wells (myotoxin II [2]): low difference for the dilutions of 1/100 and 1/1000 | ELISA signal, myotoxin II coated wells versus uncoated control (myotoxin II [2]): greatest difference between toxin coated wells and control
